Calls of active or inactive are those of the source.

The results in this text go back to ChEMBL document CHEMBL5346905, “2,6-diazaspiro[3.4]octan-7-one derivatives as potent sigma-1 receptor antagonists that enhanced the antinociceptive effect of morphine and rescued morphine tolerance” (Eur J Med Chem, 2023).

For data set [1], the target named is T1, Sigma non-opioid intracellular receptor 1 (Cavia porcellus, UniProt Q60492). The data set is described as follows: Displacement of [3H]-pentazocine from sigma1 receptor in guinea pig brain membrane at 1 uM by liquid scintillation counting analysis relative to control. It is filed as cell membranes. A general note: Displacement assays read how much labelled ligand stays bound in the presence of the test substance.

Data set [2] has as its system Mus musculus. Nature of the data set: Reversal of morphine tolerance in morphine tolerant C57BL/6J mouse assessed as maximum possible effect of antinociception at 30 mg/kg, ip pre-treated with morphine followed by compound addition on day 4 by hot plate test (reference value: 5.4%). Format: functional.
Data set [3] concerns Mus musculus. Nature of the data set: Antinociceptive activity in C57BL/6J mouse assessed as reduction in morphine-induced nociceptive response by measuring morphine ED50 at 30 mg/kg, ip pre-administered with compound followed by morphine addition measured after 30 mins by hot plate test (reference value: 4.3 mg/kg). It is filed as functional. In general terms: Thermal pain tests record how soon the animal reacts.

Data set [4] concerns Mus musculus. Nature of the data set: Synergistic antinociceptive activity in C57BL/6J mouse assessed as reduction in morphine-induced nociceptive response upto 60 mg/kg, ip pre-administered with compound followed by morphine addition measured after 30 mins by hot plate test. Format: functional, organism-based.
For data set [5], the system named is Mus musculus. Nature of the data set: Synergistic antinociceptive activity in C57BL/6J mouse assessed as reduction in morphine-induced nociceptive response at 30 mg/kg, ip pre-administered with compound followed by morphine addition measured after 30 mins in presence of PRE-084 by hot plate test. It is filed as functional, organism-based.
Data set [6] in a line: Drug concentration in brain of C57BL/6J mouse at 10 mg/kg, ip measured after 1 hrs by LC-MS/MS analysis. It is filed as ADME, organism-based. The following applies: read-out: Drug uptake.
The nature of data set [7]: Observed AUC(0 to infinity) in C57BL/6J mouse at 10 mg/kg, ip measured after 24 hrs by LC-MS/MS analysis. Format: ADME, organism-based. Set-up: time 24 hrs, dose 10 mg/kg, route ip. The conditions noted are these: in vivo.
Data set [8] in a line: Tmax in C57BL/6J mouse at 10 mg/kg, ip measured after 24 hrs by LC-MS/MS analysis. It is filed as ADME, organism-based. The following applies: in vivo.
Data set [9] in a line: Drug concentration in plasma of C57BL/6J mouse at 10 mg/kg, ip measured after 4 hrs by LC-MS/MS analysis. It is filed as ADME, organism-based.
Data set [10] deals with Mus musculus. The data set is described as follows: Antinociceptive activity in ip dosed C57BL/6J mouse assessed as reduction in morphine-induced nociceptive response pre-administered with compound followed by morphine addition measured after 30 mins by hot plate test. It is filed as functional, organism-based. The following applies: dose 0-60 mg/kg.
The subject of data set [11] is Mus musculus. Nature of the data set: Synergistic antinociceptive activity in C57BL/6J mouse assessed as reduction in morphine-induced nociceptive response at 30 mg/kg, ip pre-administered with compound followed by morphine addition measured after 30 mins in presence of naloxone by hot plate test. It is filed as functional, organism-based.
Data set [12] in a line: Half life in C57BL/6J mouse at 10 mg/kg, ip measured after 24 hrs by LC-MS/MS analysis. It is filed as ADME, organism-based. The following applies: in vivo.
Data set [13] deals with Sigma non-opioid intracellular receptor 1 (Homo sapiens, UniProt Q99720). The data set is described as follows: Antagonist activity at sigma1 receptor (unknown origin).
Data set [14] is described as follows: Observed MRT(0 to infinity) in C57BL/6J mouse at 10 mg/kg, ip measured after 24 hrs by LC-MS/MS analysis. It is filed as ADME, organism-based. The following applies: in vivo.
The nature of data set [15]: AUClast in C57BL/6J mouse at 10 mg/kg, ip measured after 24 hrs by LC-MS/MS analysis. The following applies: in vivo. Format: ADME, organism-based. More on the design: time 24 hrs, dose 10 mg/kg, route ip.
Data set [16] addresses Mu-type opioid receptor (Homo sapiens) (UniProt P35372). Nature of the data set: Displacement of [3H]-DAMGO from human MOR expressed in CHO cells at 1 uM incubated for 90 mins by beta-scintillation counting analysis. Format: cell-based.
Data set [17] in a line: Cmax in C57BL/6J mouse at 10 mg/kg, ip measured after 24 hrs by LC-MS/MS analysis. Format: ADME, organism-based. Set-up: time 24 hrs, dose 10 mg/kg, route ip. The conditions noted are these: in vivo.
For data set [18], the system named is Mus musculus. Nature of the data set: Reversal of morphine tolerance in morphine tolerant C57BL/6J mouse assessed as maximum possible effect of antinociception at 30 mg/kg, ip pre-treated with morphine followed by compound addition on day 4 in presence of PRE-084 by hot plate test. It is filed as functional, organism-based.
Data set [19] in a line: Drug concentration in brain of C57BL/6J mouse at 10 mg/kg, ip measured after 4 hrs by LC-MS/MS analysis. It is filed as ADME, organism-based. The following applies: read-out: Drug uptake.
Data set [20] has as its system Mus musculus. Nature of the data set: Antinociceptive activity in C57BL/6J mouse assessed as reduction in nociceptive response at 30 mg/kg, ip measured after 30 mins by hot plate test. It is filed as functional, organism-based.
Data set [21] is described as follows: Ratio of drug concentration in brain to plasma in C57BL/6J mouse at 10 mg/kg, ip measured after 1 hrs by LC-MS/MS analysis. The conditions noted are these: read-out: BPR. It is filed as ADME, organism-based.
The target in data set [22] is T1, Sigma non-opioid intracellular receptor 1. The data set is described as follows: Displacement of [3H]-pentazocine from sigma1 receptor in guinea pig brain membrane assessed as inhibition constant in presence of phenytoin by liquid scintillation counting analysis. It is filed as cell membranes.
Data set [23] addresses Sigma intracellular receptor 2 (Homo sapiens, UniProt Q5BJF2). The data set is described as follows: Antagonist activity at sigma2 receptor (unknown origin).
Data set [24] is described as follows: Ratio of drug concentration in brain to plasma in C57BL/6J mouse at 10 mg/kg, ip measured after 4 hrs by LC-MS/MS analysis. Format: ADME, organism-based. The conditions noted are these: read-out: BPR.
The nature of data set [25]: Drug concentration in plasma of C57BL/6J mouse at 10 mg/kg, ip measured after 1 hrs by LC-MS/MS analysis. It is filed as ADME, organism-based.

T1 sequence (Q60492 whole entry): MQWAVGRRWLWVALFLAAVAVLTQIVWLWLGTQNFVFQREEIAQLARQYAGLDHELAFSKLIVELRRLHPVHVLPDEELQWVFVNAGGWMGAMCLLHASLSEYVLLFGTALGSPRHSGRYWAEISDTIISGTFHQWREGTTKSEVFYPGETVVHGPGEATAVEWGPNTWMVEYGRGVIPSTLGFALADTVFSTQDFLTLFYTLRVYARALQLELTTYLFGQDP
Sequence of Sigma non-opioid intracellular receptor 1 (Homo sapiens, UniProt Q99720) (Q99720 whole entry): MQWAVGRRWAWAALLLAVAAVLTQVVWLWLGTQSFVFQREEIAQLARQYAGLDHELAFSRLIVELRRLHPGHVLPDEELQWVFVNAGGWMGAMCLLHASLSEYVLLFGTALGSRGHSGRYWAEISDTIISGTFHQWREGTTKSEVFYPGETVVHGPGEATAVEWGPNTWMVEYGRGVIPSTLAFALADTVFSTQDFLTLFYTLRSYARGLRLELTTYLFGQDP
Sequence of Mu-type opioid receptor (Homo sapiens) (P35372 whole entry): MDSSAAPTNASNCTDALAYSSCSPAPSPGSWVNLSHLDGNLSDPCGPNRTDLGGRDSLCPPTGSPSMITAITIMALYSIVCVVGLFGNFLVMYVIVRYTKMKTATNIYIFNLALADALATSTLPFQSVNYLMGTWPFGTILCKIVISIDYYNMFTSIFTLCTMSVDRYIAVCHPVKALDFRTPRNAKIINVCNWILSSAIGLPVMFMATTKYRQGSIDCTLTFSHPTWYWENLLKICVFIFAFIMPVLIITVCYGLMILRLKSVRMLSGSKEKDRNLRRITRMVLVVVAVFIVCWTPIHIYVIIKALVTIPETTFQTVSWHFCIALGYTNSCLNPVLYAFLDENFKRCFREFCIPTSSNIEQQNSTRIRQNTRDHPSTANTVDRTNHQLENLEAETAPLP
Sequence of Sigma intracellular receptor 2 (Q5BJF2 whole entry): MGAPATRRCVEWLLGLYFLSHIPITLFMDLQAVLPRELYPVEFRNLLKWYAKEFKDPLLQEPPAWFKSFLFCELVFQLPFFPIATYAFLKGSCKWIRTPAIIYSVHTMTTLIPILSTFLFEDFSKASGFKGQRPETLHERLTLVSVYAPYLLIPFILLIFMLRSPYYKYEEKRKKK

As to `O=C1CC2(CN(CCCc3ccccc3F)C2)CN1c1ccccc1`, in data set [1], the Ki – broadly, the dissociation constant of the complex between target and ligand, obtained from inhibition or displacement – turned out to be 0.0445 µM.

`O=C1CC2(CN(CCCc3ccccc3)C2)CN1c1ccccc1` displayed a Ki in data set [1] of 0.0487 µM.

With `Cc1cccc(CCCN2CC3(CC(=O)N(c4ccccc4)C3)C2)c1`, in [1], the Ki was 0.033 µM.

Compound `O=C1CC2(CN(CCC3CCCCC3)C2)CN1c1ccccc1` showed a Ki in data set [1] of 0.0427 µM.

`CC(Cc1ccccc1)N1CC2(CC(=O)N(c3ccccc3)C2)C1` (stereo not given): in data set [1], the Ki was 0.0405 µM.

Compound `O=C1CC2(CN(CCCc3ccc(F)cc3)C2)CN1c1ccccc1` registered a Ki in data set [1] of 0.0168 µM.

`Cc1cccc(N2CC3(CC2=O)CN(CCCc2ccccc2)C3)c1` came in with a Ki in data set [1] of 0.0497 µM.

Take `Cc1cc(OCCN2CCOCC2)nn1-c1ccc2ccccc2c1`: in data set [1], the Ki was 0.0129 µM. The outcome in the data set on Mus musculus [2], with Mus musculus [3] and in the data set with Mus musculus [4] was inactive.

Take `O=C1CC2(CN(CCc3ccc4ccccc4c3)C2)CN1c1ccccc1`: in [1], the affinity corresponds to a Ki of 0.0604 µM.

In data set [1], `O=C1CC2(CN(CCc3cccc(F)c3)C2)CN1c1ccccc1` gave a Ki of 0.393 µM.

For `O=C1CC2(CN(CCCc3cccc(F)c3)C2)CN1c1ccccc1`, the Ki in [1] stood at 0.0268 µM.

`O=C1CC2(CN(CCC3CCCCC3)C2)CN1c1ccc(F)cc1` displayed a Ki in data set [1] of 0.0388 µM.

Regarding `Cc1ccc(CCCN2CC3(CC(=O)N(c4ccccc4)C3)C2)cc1`, the Ki in data set [1] was determined as 0.0145 µM; in [22] it was 0.0372 µM. For the same compound, the outcome in the data set with Mus musculus [5], in the data set with Mus musculus [11], in the data set with Mus musculus [18] and in the data set with Mus musculus [20] was inactive. The values for the concentration at 1 h in data set [6] and in data set [25] were 3790 ng/g and 0.513 µg/mL, respectively. For the same compound, in data set [7], the AUC(0-inf) (in general, total exposure, with the tail of the curve extrapolated) worked out at 2.29 µg·h/mL. Moreover, in data set [8], the Tmax (as a rule, the time at which the peak concentration occurs) came out at 0.25 h. Moreover, the results for the concentration at 4 h in data set [9] and in data set [19] were 0.078 µg/mL and 609 ng/g, respectively. Moreover, the Activity entry is “Dose-Dependent Effect” in the data set on Mus musculus [10] and 16.5% in data set [16]. Besides, the MPE in the data set with Mus musculus [2] worked out at 70.5%. The half-life (commonly the time needed for the level to fall by half in the phase considered) in [12] is 1.42 h. Also, the ED50 (usually the midpoint of the dose-response relation) with Mus musculus [3] (0.5 h) worked out at 2.3 mg/kg. The figures for the IC50 in data set [13] and in data set [23] were 0.0191 µM and 0.227 µM, respectively. The MRT inf (as a rule, a mean duration of stay, worked out from the concentration-time curve) in data set [14] stood at 2.08 h. Moreover, the AUC(0-t) (usually the area under the concentration-time curve up to a stated or last time point) at 24 h in data set [15] stood at 2.24 µg·h/mL. Moreover, the Cmax (commonly the peak of the concentration-time curve) in data set [17] was found to be 0.99 µg/mL. The Kp at 1 h in [21] worked out at 7.38. For the same compound, the Kp at 4 h in data set [24] was found to be 7.8.

In data set [1], `CC(Cc1ccccc1)N1CC2(CC(=O)N(c3ccc(F)cc3)C2)C1` (stereo not given) displayed a Ki of 0.181 µM.

For the compound `Cc1ccc(N2CC3(CC2=O)CN(CCCc2ccccc2)C3)cc1`, in data set [1], the Ki worked out at 0.0683 µM.

In [1], `Cc1cccc(CCN2CC3(CC(=O)N(c4ccc(F)cc4)C3)C2)c1` gave a Ki of 0.0476 µM.

With `O=C1CC2(CN(CCCc3ccccc3)C2)CN1Cc1ccccc1`, in [1], the Ki was determined as 0.0837 µM.

For `O=C1CC2(CN(CCCc3ccccc3)C2)CN1c1ccc(F)cc1`, the affinity in [1], expressed as Ki, was 0.0349 µM.

In the case of `O=C1CC2(CN(CCc3ccccc3)C2)CN1c1ccccc1`, the affinity in data set [1], expressed as Ki, was 0.175 µM.
